The text below walks through data of patent US20080306019A1, “Dopamine Receptor Agonists in the Treatment and Prevention of Hiv-Induced Dementia” (priority 2005, published 2008).

Series [1] relates to adult female Sprague-Dawley rats (ovariectomized). As to the kind of experiment: Locomotor activity after intra-accumbal Tat and IV cocaine (Example 4). It is filed as in vivo, rat. Conditions: IV cocaine 3.0 mg/kg, saline intra-accumbal. As for the experimental part:
Animals. […] Ovariectomy was also performed on all rats during the same surgical procedure.
Intra-accumbal TAT injection. A 2 treatment×2 drug, design was used. Thus, rats received bilateral injections of TAT or vehicle into the nucleus accumbens core and were subsequently administered an IV injection of cocaine (3.0 mg/kg/injection) or saline. Rats were administered intra-accumbal TAT or VEH injections according to methods previously described (Bansal et al., 2000). Briefly, 15 μg of Tat were injected bilaterally, using a Hamilton Syringe coated with Sigmacote, at the following coordinates: 1.8 mm anterior, ±1.6 mm lateral, and 7.0 mm ventral from bregma on the skull surface.
Locomotor activity. The activity monitors were 16-cm diameter, round open-field chambers (Flex-Field, San Diego Instruments, San Diego, Calif.) that detected free movement of animals by infrared photocell interruptions. This equipment used an infrared photocell grid (32 emitter/detector pairs) to measure total locomotor activity. […]
Drug Treatment. […] The dose of cocaine hydrochloride (3.0 mg/kg/day; Sigma, St. Louis, Mo.) was calculated on the weight of the salt and dissolved in saline for an injection volume of 1 ml/kg.

Series [2] relates to rat hippocampal neurons. Put plainly: Intracellular ROS production (DCF fluorescence) in rat hippocampal neuronal cultures. It is filed as cell-based. As for the experimental part:
Neuronal cultures were incubated with 10 μM H2DCFDA (Molecular Probes, Eugene, Oreg.) for 60 min at 37° C. in PBS.
No decrease in neuronal viability occur-red in cell cultures subjected to Tat alone or Tat+cocaine after 2 hours of treatment.

Series [3] relates to ovariectomized female Sprague-Dawley rats. Put plainly: IV cocaine-induced locomotor activity after intra-accumbal Tat (1-72) (Example 14). Conditions: for mean total activity (±SEM): IV cocaine 3.0 mg/kg; for mean TIC (time in center): across days; for TIC, acute (Day 1): acute IV cocaine. It counts as in vivo, rat. From the text: Animals: Sixty-four adult ovariectomized female, Sprague-Dawley rats (70 days old) were obtained from Harlan Laboratories, Inc. (Indianapolis, Ind.). All rats were surgically implanted with an Intracath IV catheter (22 ga, Becton/Dickinson General Medical Corp., Grand Prarie, Tex.), which was used as a SC, dorsally implanted port for chronic IV injections. The subcutaneous implantable access port for rats was developed and described by Mactutus et al. (1994). Ovariectomized rats were used because estrogen is protective against the neurotoxic effects of Tat (Wallace et al., 2006). Serial ovariectomy and indwelling jugular catheter surgeries occurred for all rats during the same procedure. Upon arrival at the animal care facilities, rats were placed in quarantine for 7 days, and then transferred to the colony. Animals were pair housed throughout the experiment and the catheters were flushed daily with 0.2 ml of heparinized (2.5%) saline. Rodent food (Pro-Lab Rat, Mouse Hamster Chow #3000) and water were provided ad lib. The colony was maintained at 21±2° C., 50%±10% relative humidity and a 12L: 12D cycle with lights on at 0700 h (EST).
Locomotor activity: Habituation: Rats in the vehicle-saline (VEH-SAL), Tat-saline (Tat-SAL), vehicle-cocaine (VEH-COC), and Tat-cocaine (TAT-COC) groups were habituated to the locomotor activity chambers for two 60-min sessions, one/day. Twenty four hours after the second habituation session, all rats were injected with IV saline and placed into the activity chambers for 30-min to measure baseline activity. The activity monitors were square (40×40 cm) open-field chambers (Hamilton-Kinder Inc., Poway, Calif.) that detected free movement of animals by infrared photocell interruptions. This equipment used an infrared photocell grid (32 emitter/detector pairs) to measure locomotor activity. The chambers were converted into round (˜40 cm diameter) compartments by adding clear Plexiglas inserts; photocell emitter/detector pairs were tuned by the manufacturer to handle the extra perspex width. Circular chambers increase the sensitivity to detect locomotor activity (Harrod et al., 2006). All activity monitors were located in an isolated room.
Intra-accumbal Tat microinjection: All rats received intra-accumbal Tat or vehicle (VEH; physiological saline) injections approximately 24 hours after the saline baseline activity session and then received subsequent IV injections of cocaine (3.0 mg/kg/injection) or saline according to a 2×2, protein×drug, design. […] Tat was therefore administered to the core region of the N Acc to determine if the sensitization process was disrupted. Rats were administered intra-accumbal Tat or VEH injections according to methods previously described (Bansal et al., 2000; Aksenov et al., 2003). Briefly, rats were anesthetized using a mixture of ketamine hydrochloride and xylazine by intraperatoneal (IP) injection (7.5 mg ketamine/100 gb.wt. […].). 15 μg/l of Tat was injected bilaterally, using a silanized Hamilton Syringe at the following coordinates: 1.8 mm anterior, ±1.6 mm lateral, and 7.0 mm ventral from bregma on the skull surface, over an interval of one minute, with a one minute tissue recovery period before withdrawal.
IV cocaine-induced locomotor activity: Twenty-four hours after rats received bilateral intra-accumbal injections, IV cocaine or saline was administered. The animals were immediately placed into locomotor activity chambers following cocaine or saline. The animals' locomotor activity response to cocaine was assessed for 30 minutes on only two occasions: immediately after the first (Day 1) and last (Day 14) cocaine injections; however, rats were administered daily IV cocaine or saline injections in the home cage on days 2-13. […]

Series [4] has as its system rat hippocampal neurons. Put plainly: Live/Dead (Calcein/Ethidium) viability of rat hippocampal neuronal cultures. The following applies: hydrochloride.

Molecules are shown by their SMILES. Entries after “also recorded” stand apart in the source; their conditions may differ.

Take `COC(=O)[C@H]1[C@@H](OC(=O)c2ccccc2)C[C@@H]2CC[C@H]1N2C.Cl` [cocaine, Cocaine hydrochloride]: the “centrally directed activity, cocaine” value in series [1] is given as “cocaine-induced increase in centrally directed activity”. The “intracellular ROS production, cocaine + Tat vs Tat alone” value in series [2] (1.6 μM cocaine + 50 nM Tat, 2 hours) is given as “increased intracellular ROS production relative to cultures treated with 50 nM Tat alone”. Also, the “difference in DCF fluorescence, Tat+cocaine vs Tat” value in series [2] (48 hours of treatment) is reported as “not significant”. Also, in series [2] (cocaine alone), the “DCF fluorescence, cocaine alone” value is on record as “did not cause changes in DCF fluorescence”. Besides, in series [3] (14 days), the “total activity, repeated IV cocaine” value is on record as “induced behavioral sensitization of total activity”. Also, the “mean total activity (±SEM)” value in series [3] (10 minute) is 2363.0 (±120.0); in series [3] (20 minute), 1660.6 (±103.8); in series [3] (30 minute), 1494.01 (±66.5). Moreover, the “mean TIC (time in center)” value in series [3] (10 minute) is listed as 116.6 (±12.4) seconds; in series [3] (20 minute) it was 152.3 (±20.1) seconds; in series [3] (30 minute), 160.3 (±19.6) seconds. Moreover, the results for the “TIC, acute (Day 1)” value in series [3] (10 minute), in series [3] (20 minute) and in series [3] (30 minute) were 72.1 (±15.0) seconds, 100.2 (±19.0) seconds and 108.9 (±24.4) seconds, respectively. The “total activity, acute cocaine (Day 1)” value in series [3] (rat, in vivo) is given as “did not increase total activity”. Besides, the “locomotor composite incidence scores, VEH-COC vs VEH-SAL” value in series [3] (repeated (day 14) cocaine) was “significantly higher locomotor composite incidence scores”. Besides, in series [4] (50 nM Tat + 1.5-1.6 μM cocaine, 48 hours), the “neuronal cell death / Tat toxicity, Tat + cocaine vs Tat alone” value was “significantly higher in cultures subjected to both Tat and cocaine; also recorded: enhanced Tat toxicity”. Also, the “toxicity / cell viability, cocaine alone” value in series [4] (cocaine alone (0.1-10 μM; 1.5 μM)) is “No toxicity; also recorded: did not change cell viability”.
